Earlier results on 5 compounds are cited in US8785634B2, “Spiropiperidine prolylcarboxypeptidase inhibitors” (Merck Sharp & Dohme Corp, priority 2010, dated 2014).

The conditions of data set [1]: in vivo.
In data set [2] the test system is rats. Conditions: intracerebroventricular.
Data set [3] deals with obese, leptin deficient mice. Conditions: systemic administration.

As for `CCN[C@@H](C)Cc1cccc(C(F)(F)F)c1` [dexfenfluramine], in data set [1], the “weight loss, of body weight, drug compared to placebo” value (“weight loss … compared to placebo” for short) is reported as 5%-10%.
Consider `CCCCCCCCCCC[C@@H](C[C@@H]1OC(=O)[C@H]1CCCCCC)OC(=O)[C@H](CC(C)C)NC=O` [orlistat], for which, in data set [1], the “weight loss … compared to placebo” value was 5%-10%.
As for `CC(C)(N)Cc1ccccc1` [phentermine], in data set [1], the “weight loss … compared to placebo” value is reported as 5%-10%.
With `CC(C)CC(N(C)C)C1(c2ccc(Cl)cc2)CCC1` (stereo not drawn) [sibutramine], the “weight loss … compared to placebo” value in data set [1] is 5%-10%.
As to t-butyl carbamate-prolyl prolinal [BPP], the overnight food intake entry in data set [2] and in data set [3] was “suppression of overnight food intake” in each case.
